The structures appear in SMILES notation. A value given as a limit tells only on which side of the number the result lay.

The target of one assay is T1, TYRO3 (Homo sapiens, UniProt Q06418).
T1 sequence (Q06418 41-890): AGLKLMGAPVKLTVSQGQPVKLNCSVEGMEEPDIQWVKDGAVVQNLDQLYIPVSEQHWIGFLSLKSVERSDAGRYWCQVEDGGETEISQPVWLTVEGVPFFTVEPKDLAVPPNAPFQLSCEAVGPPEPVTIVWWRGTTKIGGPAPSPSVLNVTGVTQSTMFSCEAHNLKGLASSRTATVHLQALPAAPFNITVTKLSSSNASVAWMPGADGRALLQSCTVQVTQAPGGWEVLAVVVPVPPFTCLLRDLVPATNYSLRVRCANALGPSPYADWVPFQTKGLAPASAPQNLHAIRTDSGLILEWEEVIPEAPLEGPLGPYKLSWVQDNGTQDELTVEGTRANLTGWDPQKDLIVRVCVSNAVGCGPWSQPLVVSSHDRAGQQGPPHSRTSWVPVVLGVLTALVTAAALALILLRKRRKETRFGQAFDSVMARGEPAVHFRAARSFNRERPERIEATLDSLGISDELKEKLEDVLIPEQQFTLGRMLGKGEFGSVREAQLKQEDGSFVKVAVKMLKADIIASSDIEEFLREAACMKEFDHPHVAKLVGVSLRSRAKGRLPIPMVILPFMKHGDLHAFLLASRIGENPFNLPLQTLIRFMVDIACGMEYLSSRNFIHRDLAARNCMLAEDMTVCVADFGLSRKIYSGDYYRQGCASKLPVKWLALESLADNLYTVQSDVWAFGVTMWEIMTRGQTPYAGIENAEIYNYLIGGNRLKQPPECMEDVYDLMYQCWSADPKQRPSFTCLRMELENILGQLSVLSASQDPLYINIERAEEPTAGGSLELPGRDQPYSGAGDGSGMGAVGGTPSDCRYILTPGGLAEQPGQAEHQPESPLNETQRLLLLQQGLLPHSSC
The assay can be described thus: TR-FRET kinase activity assay, TYRO3. The format is biochemical. Conditions: ATP at Km, 60 minutes. In outline:
(§1)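 Enzyme + labelled peptide + cpd premixed; ATP at per-enzyme Km starts rxn. 60 min RT, HEPES pH 7.5/MgCl2/EGTA/Brij 35/DTT buffer. Stop 12.5 mM EDTA, Eu phospho-Ab 30 min dark, TR-FRET read → IC50.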

The target of another assay is T2, AXL (Homo sapiens, UniProt P30530).
T2 sequence (P30530 26-894): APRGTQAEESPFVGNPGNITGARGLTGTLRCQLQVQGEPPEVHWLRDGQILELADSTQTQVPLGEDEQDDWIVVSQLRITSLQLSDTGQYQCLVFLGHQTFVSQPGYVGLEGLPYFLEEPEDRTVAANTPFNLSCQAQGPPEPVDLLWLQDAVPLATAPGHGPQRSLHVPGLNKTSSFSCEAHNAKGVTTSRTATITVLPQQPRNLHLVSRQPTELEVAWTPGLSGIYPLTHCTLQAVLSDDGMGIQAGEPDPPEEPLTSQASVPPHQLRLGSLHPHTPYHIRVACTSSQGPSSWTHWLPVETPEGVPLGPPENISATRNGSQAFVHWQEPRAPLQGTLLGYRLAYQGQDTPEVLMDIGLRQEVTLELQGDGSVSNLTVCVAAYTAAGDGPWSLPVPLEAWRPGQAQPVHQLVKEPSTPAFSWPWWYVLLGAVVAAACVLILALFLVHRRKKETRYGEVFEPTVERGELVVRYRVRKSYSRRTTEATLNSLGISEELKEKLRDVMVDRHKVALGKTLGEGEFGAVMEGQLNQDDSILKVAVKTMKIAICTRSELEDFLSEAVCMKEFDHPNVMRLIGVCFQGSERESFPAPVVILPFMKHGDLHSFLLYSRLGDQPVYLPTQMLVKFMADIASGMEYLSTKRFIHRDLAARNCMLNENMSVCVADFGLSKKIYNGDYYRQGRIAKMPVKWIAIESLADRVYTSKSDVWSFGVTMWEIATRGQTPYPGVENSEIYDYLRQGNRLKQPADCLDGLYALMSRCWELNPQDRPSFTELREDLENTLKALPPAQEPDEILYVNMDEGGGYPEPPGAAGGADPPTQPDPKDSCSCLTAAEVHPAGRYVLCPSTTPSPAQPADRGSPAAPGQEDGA
In words: TR-FRET kinase activity assay, AXL. The format is biochemical. Conditions: ATP at Km, 60 minutes. In outline:
as §1

In the case of `COC[C@H](C)Nc1ncc2c(-c3cnn(C(C)(C)c4nnc(C(F)F)o4)c3)cc([C@H]3CC[C@H](O)CC3)n2n1` [Compound 599], the IC50 at TYRO3 and at AXL was at most 100 nM throughout.
For `COC[C@H](C)Nc1ncc2c(-c3cnn(CC(C)C)c3)cc([C@H]3CC[C@H](O)CC3)n2n1` [Compound 167], the IC50 against TYRO3 and at AXL was at most 100 nM in each case.
In the case of `COCC(C)Nc1ncc2c(-c3cccc(C(C)N4CCCC4)c3)cc(C3CCC(O)CC3)n2n1` (stereo not shown) [Compound 158], the IC50 at TYRO3 and on AXL was at most 100 nM throughout.
`[2H]C([2H])([2H])OCC(C)Nc1ncc2c(-c3ccnc(N4CCOCC4)c3)cc(C3CCC(O)CC3)n2n1` (stereo not shown) [Compound 629]: the concentration for half-maximal inhibition (IC50) at TYRO3 and against AXL was at most 100 nM in each case.
As to `COCCC(C)Nc1ncc2c(-c3ccc(CN4CCCC4)cc3)cc(C3CCC(O)CC3)n2n1` (stereo not shown) [Compound 161], the IC50 is at most 100 nM against TYRO3 and 100 to 1000 nM against AXL.
For `COC[C@H](C)Nc1ncc2c(-c3ccc([C@H](C)N4CCCC4)cc3)cc([C@H]3CC[C@H](O)CC3)n2n1` [Compound 165] the same measures were at most 100 nM and at most 100 nM.
Taken in the same sequence, the figures for `COC[C@H](C)Nc1ncc2c(-c3ccnc(S(C)(=O)=O)c3)cc(C3CCC(O)CC3)n2n1` (stereo partly shown) [Compound 627] were at most 100 nM and at most 100 nM.
Taken in the same sequence, the figures for `COC[C@H](C)Nc1ncc2c(-c3cnn(C(C)(C)c4nc(C)co4)c3)cc([C@H]3CC[C@H](O)CC3)n2n1` [Compound 623] were at most 100 nM and at most 100 nM.
Turning to `COC[C@H](C)Nc1ncc2c(-c3cnn(C4COC4)c3)cc([C@H]3CC[C@@](O)(C(C)C)CC3)n2n1` [Compound 618], the IC50 against TYRO3 and against AXL was at most 100 nM throughout.
As for `C[C@@H](COC(F)F)Nc1ncc2c(-c3ccnc(N4CCO[C@@H](C(C)(C)O)C4)c3)cc([C@H]3CC[C@H](O)CC3)n2n1` [Compound 597], the IC50 against TYRO3 and against AXL was at most 100 nM throughout.
Take `COC[C@H](C)Nc1ncc2c(-c3cnn(C(C)(C)c4nnc([C@@H]5CCCO5)o4)c3)cc([C@H]3CC[C@H](O)CC3)n2n1` [Compound 601]: the IC50 on TYRO3 and against AXL was at most 100 nM throughout.
Consider `COC[C@H](C)Nc1ncc2c(-c3cnn(C(C)(C)c4nnc(N5CCOCC5)o4)c3)cc(C3CCC(O)CC3)n2n1` (stereo partly shown) [Compound 631], for which the half-maximal inhibitory concentration (IC50) against TYRO3 and against AXL was at most 100 nM each time.
On to `COC[C@H](C)Nc1ncc2c(-c3ccnc(C)c3)cc([C@H]3CC[C@H](O)CC3)n2n1` [Compound 146], for which the figures for the IC50 against TYRO3 and at AXL were at most 100 nM and 100 to 1000 nM, respectively.
As to `COC[C@H](C)Nc1ncc2c(-c3cnn(CCN4CCOCC4)c3)cc([C@H]3CC[C@H](O)CC3)n2n1` [Compound 153], the values for the IC50 against TYRO3 and at AXL were at most 100 nM and 100 to 1000 nM, respectively.
Taken in the same sequence, the figures for `COC[C@H](C)Nc1ncc2c(-c3cnn(Cc4nnc(C)s4)c3)cc([C@H]3CC[C@H](O)CC3)n2n1` [Compound 596] were at most 100 nM and at most 100 nM.
Taken in the same sequence, the figures for `COCC(C)Nc1ncc2c(-c3ccc(C(C)N4CCOCC4)cc3)cc(C3CCC(O)CC3)n2n1` (stereo not shown) [Compound 182] were at most 100 nM and at most 100 nM.
Take `CC(Nc1ncc2c(-c3ccc(CN4CCN(C)CC4)cc3)cc([C@H]3CC[C@H](O)CC3)n2n1)C(F)F` (mixture of isomers) [Compound 148]: the IC50 against TYRO3 and against AXL was at most 100 nM throughout.
As to `COC[C@H](C)Nc1ncc2c(-c3cnn(C4COC4)c3)cc([C@H]3CCc4[nH]ncc4C3)n2n1` [Compound 624], the IC50 against TYRO3 and on AXL was at most 100 nM throughout.
For the molecule `CNC(=O)c1ccc(-c2cc([C@H]3CC[C@H](O)CC3)n3nc(N[C@@H](C)COC)ncc23)cn1` [Compound 147], the IC50 on TYRO3 was at most 100 nM; against AXL, 100 to 1000 nM.
For `C[C@@H](CC(F)(F)F)Nc1ncc2c(-c3cnn(C(C)(C)C(=O)N4CCN(C)CC4)c3)cc(C3CCC(O)CC3)n2n1` (stereo partly shown) [Compound 626] the same measures were at most 100 nM and at most 100 nM.
For `CCOC(=O)Cn1cc(-c2cc([C@H]3CC[C@H](O)CC3)n3nc(N[C@@H](C)COC)ncc23)cn1` [Compound 159] the same measures were at most 100 nM and at most 100 nM.
For `C[C@@H](CC(F)(F)F)Nc1ncc2c(-c3cnn(C(C)(C)C(=O)C4COC4)c3)cc([C@H]3CC[C@@](C)(O)CC3)n2n1` [Compound 609], the IC50 on TYRO3 and against AXL was at most 100 nM in each case.
Regarding `COC[C@H](C)Nc1ncc2c(-c3cnn(CC(=O)O)c3)cc([C@H]3CC[C@H](O)CC3)n2n1` [Compound 160], the IC50 against TYRO3 and against AXL was at most 100 nM throughout.
In the case of `COC[C@H](C)Nc1ncc2c(-c3cnn(C(C)(C)c4nnc(C(C)C)o4)c3)cc([C@H]3CC[C@H](O)CC3)n2n1` [Compound 600], the IC50 against TYRO3 and on AXL was at most 100 nM each time.
Regarding `COC[C@H](C)N(C)c1ncc2c(-c3ccnc(C)c3)cc([C@H]3CC[C@H](O)CC3)n2n1` [Compound 175, (trans)-4-(2-(((S)-1-methoxypropan-2-yl)(methyl)amino)-5-(2-methylpyridin-4-yl)pyrrolo[2,1-f][1,2,4]triazin-7-yl)cyclohexanol], the IC50 against TYRO3 and against AXL was 1000 to 10000 nM throughout.
On to `COC[C@H](C)Nc1ncc2c(-c3cnn(CC(=O)NS(C)(=O)=O)c3)cc([C@H]3CC[C@H](O)CC3)n2n1` [Compound 174], for which the IC50 at TYRO3 was at most 100 nM; against AXL, 100 to 1000 nM.
Regarding `COC[C@H](C)Nc1ncc2c(-c3cnn(C4CCOCC4)c3)cc([C@H]3CC[C@H](O)CC3)n2n1` [Compound 151], the results for the IC50 on TYRO3 and at AXL were at most 100 nM and 100 to 1000 nM, respectively.
For `COC[C@H](C)Nc1ncc2c(-c3cnccc3C)cc([C@H]3CC[C@H](O)CC3)n2n1` [Compound 168] the same measures were 100 to 1000 nM and 1000 to 10000 nM.
For `COC[C@H](C)Nc1ncc2c(-c3ccc([C@@H](C)N4CCOCC4)cc3)cc([C@H]3CC[C@H](O)CC3)n2n1` [Compound 156], the IC50 on TYRO3 and against AXL was at most 100 nM in each case.
As to `C[C@@H](CC(F)(F)F)Nc1ncc2c(-c3cnn(C(C)(C)C(=O)N4CC5(COC5)C4)c3)cc([C@H]3CC[C@H](O)CC3)n2n1` [Compound 608], the 50% inhibitory concentration (IC50) on TYRO3 and against AXL was at most 100 nM in each case.
As to `COC[C@H](C)Nc1ncc2c(-c3cnn(C4COC4)c3)cc([C@H]3CC[C@](O)(C(C)C)CC3)n2n1` [Compound 617], the IC50 against TYRO3 and on AXL was at most 100 nM each time.
Turning to `COCC(C)Nc1ncc2c(-c3ccc(C4(C(=O)N5CCS(=O)(=O)CC5)CC4)cc3)cc(C3CCC(O)CC3)n2n1` (stereo not shown) [Compound 172], the IC50 against TYRO3 and at AXL was at most 100 nM in each case.
With `COC[C@H](C)Nc1ncc2c(-c3ccnc(N4CCC(C)(O)C4)c3)cc(C3CCC(O)CC3)n2n1` (stereo partly shown) [Compound 633], the IC50 against TYRO3 and at AXL was at most 100 nM each time.
`COCC1(Nc2ncc3c(-c4ccc(CN5CCN(C)CC5)cc4)cc(C4CCC(O)CC4)n3n2)CC1` (stereo not shown) [Compound 149]: the results for the half-inhibitory concentration (IC50) against TYRO3 and on AXL were at most 100 nM and 100 to 1000 nM, respectively.
Taken in the same sequence, the figures for `COC[C@H](C)Nc1ncc2c(-c3ccc([C@H](C)N4CCOCC4)cc3)cc([C@H]3CC[C@H](O)CC3)n2n1` [Compound 157] were at most 100 nM and at most 100 nM.

These data come from patent US11040981B2, “Pyrrolotriazine compounds and methods of inhibiting TAM kinases” (Syros Pharmaceuticals, Inc., priority 2017, dated 2021).
